Measured values from US6818663B2, “Diaminothiazoles” (Hoffmann-La Roches, priority 2002, dated 2004).

Experiments:
[1] = molecular target: human cyclin B-CDK1 (Homo sapiens, UniProt P06493); test: FlashPlate kinase assay, cyclin B-CDK1, Rb substrate; format: biochemical; conditions: recombinant cyclin B-CDK1, Rb phosphorylation, 1 μM ATP
Method: (§1) To determine inhibition of Cdk4, Cdk2 and Cdk1 activity, kinase assays were conducted using FlashPlate™ assays (NEN™-Life Science Products). FlashPlate assays were performed using recombinant human cyclin B-CDK1, human cyclin E-CDK2 or human cyclin D1-CDK4 complexes. GST-cyclinE (GST-cycE), CDK2, GST-cyclinB (GST-cycB), CDK1, GST-CDK4 and cyclin D1 (cycD1) cDNA clones in baculovirus vectors were provided by Dr. W. Harper at the Baylor College of Medicine, Houston, Tex. Proteins were co-expressed in High Five™ insect cells and the complex was purified on glutathione Sepharose resin (Pharmacia, Piscataway, N.J.) as previously described (Harper, J. W. et al. Cell 1993, 75, 805-816). A 6×-Histidine tagged truncated form of retinoblastoma (Rb) protein (amino acid 386-928) was used as the substrate for the cycD1-CDK4, cycB-CDK1 and the cycE-CDK2 assays (the expression plasmid was provided by Dr. Veronica Sullivan, Department of Molecular Virology, Roche Research Centre, Welwyn Garden City, United Kingdom). The Rb protein is a natural substrate for phosphorylation by CDK4, CDK2 and CDK1 (see Herwig and Strauss Eur. J. Biochem. Vol. 246 (1997) pp. 581-601 and the references cited therein).
(§2) The expression of the 62 Kd protein was under the control of an IPTG inducible promoter in an M15 E. coli strain. Cells were lysed by sonication and purification was carried out by binding lysates at pH 8.0 to a Ni-chelated agarose column pretreated with 1 mM imidazole. The resin was then washed several times with incrementally decreasing pH buffers to pH 6.0, and eluted with 500 mM imidazole. Eluted protein was dialysed against 20 mM HEPES pH 7.5, 30% glycerol, 200 mM NaCl, and 1 mM DTT. Purified Rb fusion protein stocks were quantitated for protein concentration, aliquoted, and stored at −70° C.
(§3) For all three kinase assays reported herein, 96-well FlashPlates were coated with Rb protein at 10 μg/ml, using 100 μl per well. Plates were incubated at 4° C. overnight or at room temperature for 3 hours on a shaker. To control for nonspecific phosphorylation, one row of wells was coated with 100 μl/well coating buffer (20 mM HEPES, 0.2 M NaCl). Plates were then washed twice with wash buffer (0.01% Tween 20 in phosphate-buffered saline). Compounds to be tested (“test compounds”) were added to the wells at 5×final concentration. Reactions were initiated by immediate addition of 40 μl reaction mix (25 mM HEPES, 20 mM MgCl2, 0.002% Tween 20, 2 mM DTT, 1 μM ATP, 4 nM ^33P-ATP) and a sufficient amount of enzyme to give counts that were at least 10-fold above background. Plates were incubated at room temperature on a shaker for 30 minutes. Plates were washed four times with the wash buffer, sealed, and counted on the TopCount scintillation counter (Packard Instrument Co., Downers Grove, Ill.]. The percent inhibition of Rb phosphorylation, which is a measure of the inhibition of CDK activity, was determined according to the following formula: [formula]
(§4) where “test compound” refers to the average counts per minute of the test duplicates, “nonspecific” refers to the average counts per minute when no CyclinD/Cdk4, etc., was added, and “total” refers to the average counts per minute when no compound was added. The IC50 value is the concentration of test compound that reduces by 50% the protein-kinase induced incorporation of the radiolabel under the test conditions described.

[2] = molecular target: human cyclin D1-CDK4 (Homo sapiens, UniProt P11802); test: FlashPlate kinase assay, cyclin D1-CDK4, Rb substrate; format: biochemical; conditions: recombinant cyclin D1-CDK4, Rb phosphorylation, 1 μM ATP
Chain of human cyclin D1-CDK4 (P11802 whole entry): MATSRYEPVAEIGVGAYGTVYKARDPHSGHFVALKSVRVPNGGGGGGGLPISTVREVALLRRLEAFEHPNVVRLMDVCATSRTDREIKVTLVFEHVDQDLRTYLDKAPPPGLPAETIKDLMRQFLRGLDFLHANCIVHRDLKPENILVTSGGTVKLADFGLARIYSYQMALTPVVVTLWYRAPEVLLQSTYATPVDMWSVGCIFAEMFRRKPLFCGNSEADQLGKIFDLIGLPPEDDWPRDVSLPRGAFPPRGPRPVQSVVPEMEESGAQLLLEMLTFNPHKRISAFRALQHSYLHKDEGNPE
Chain of human cyclin D1-CDK4 (P24385 whole entry partner): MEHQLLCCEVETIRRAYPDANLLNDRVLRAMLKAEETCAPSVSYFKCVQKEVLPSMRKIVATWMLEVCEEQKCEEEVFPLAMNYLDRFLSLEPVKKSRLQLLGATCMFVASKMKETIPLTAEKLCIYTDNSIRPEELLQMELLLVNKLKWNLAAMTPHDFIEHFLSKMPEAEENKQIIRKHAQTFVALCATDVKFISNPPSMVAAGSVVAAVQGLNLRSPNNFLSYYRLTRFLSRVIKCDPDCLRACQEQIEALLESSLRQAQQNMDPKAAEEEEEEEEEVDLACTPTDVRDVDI
Method: as §1, §2, §3, §4

[3] = tested on: HCT116, a colorectal carcinoma cell line; test: Tetrazolium dye proliferation assay (MTT assay); format: cell-based; conditions: Homo sapiens, HCT-116, HCT116 cells, inhibition of cell proliferation
Method: Proliferation was evaluated by the tetrazolium dye assay according to the procedure of Denizot and Lang (Denizot, F. and Lang, R. J Immunol Methods 1986, 89, 271-277). The cell line used was HCT116, a colorectal carcinoma cell line obtained from the American Type Cell Culture Collection (ATCC; Rockville, Md.). The cells were grown in McCoy's 5A medium supplemented with 10% FCS and L-glutamine.
Cells were plated at the appropriate seeding density to give logarithmic growth over the course of the assay in a 96-well tissue culture plate. Plates were incubated overnight at 37° C. in a humidified incubator with 5% CO2. The next day, test compounds were serially diluted to four times the final concentration in the appropriate medium containing 1.2% DMSO. One-fourth final volume of each dilution was added in duplicate to the plates containing cells. The same volume of 1.2% DMSO in medium was added to a row of “control wells” such that the final concentration of DMSO in each well was 0.3%. Wells to which no cells were added served as the “blank.” Wells to which no inhibitor was added served as “no inhibitor control.” The plates were) returned to the incubator, and at set time points (determined by their growth curves) plates were analyzed as described below.
3-(4,5-dimethylthiazole-2-yl)-2,5-diphenyl-2H-tetrazolium bromide (thiazolyl blue; MTT; Sigma) was added to each well to yield a final concentration of 1 mg/ml. Plates were returned to the incubator for 2.5-3 hours at 37° C. The MTT-containing medium was removed and the resulting formazan metabolite was solubilized in 100% ethanol with shaking for 15 minutes at room temperature. Absorbance readings were taken in a microtiter plate reader (Dynatech and Molecular Devices plate readers were used interchangeably) at a wavelength of 570 nm with a 650 nm reference. Percent inhibition (% INH) is calculated by subtracting the absorbance of the blank well from all wells, then subtracting the ratio of the average absorbance of each test duplicate (SAVE) by the average of the controls (CAVE) from 1.00. The final number is then multiplied by 100 (% INH=(1.00−SAVE/CAVE)×100). The concentration at which 50% inhibition of cell proliferation is obtained (the IC50) is determined from the linear regression of a plot of the logarithm of the concentration versus percent inhibition.

[4] = molecular target: human cyclin E-CDK2 (Homo sapiens, UniProt P24941); test: FlashPlate kinase assay, cyclin E-CDK2, Rb substrate; format: biochemical; conditions: recombinant cyclin E-CDK2, Rb phosphorylation, 1 μM ATP
Method: as §1, §2, §3, §4

Chain of human cyclin B-CDK1 (P06493 whole entry): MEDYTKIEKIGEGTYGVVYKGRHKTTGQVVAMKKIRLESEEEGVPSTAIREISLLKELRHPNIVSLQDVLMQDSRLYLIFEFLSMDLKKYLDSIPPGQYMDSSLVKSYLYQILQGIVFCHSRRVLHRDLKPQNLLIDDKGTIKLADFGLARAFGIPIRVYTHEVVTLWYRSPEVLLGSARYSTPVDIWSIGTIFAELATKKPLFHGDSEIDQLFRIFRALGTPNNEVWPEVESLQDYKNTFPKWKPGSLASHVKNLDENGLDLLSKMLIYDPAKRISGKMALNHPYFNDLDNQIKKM
Chain of human cyclin B-CDK1 (P14635 whole entry partner): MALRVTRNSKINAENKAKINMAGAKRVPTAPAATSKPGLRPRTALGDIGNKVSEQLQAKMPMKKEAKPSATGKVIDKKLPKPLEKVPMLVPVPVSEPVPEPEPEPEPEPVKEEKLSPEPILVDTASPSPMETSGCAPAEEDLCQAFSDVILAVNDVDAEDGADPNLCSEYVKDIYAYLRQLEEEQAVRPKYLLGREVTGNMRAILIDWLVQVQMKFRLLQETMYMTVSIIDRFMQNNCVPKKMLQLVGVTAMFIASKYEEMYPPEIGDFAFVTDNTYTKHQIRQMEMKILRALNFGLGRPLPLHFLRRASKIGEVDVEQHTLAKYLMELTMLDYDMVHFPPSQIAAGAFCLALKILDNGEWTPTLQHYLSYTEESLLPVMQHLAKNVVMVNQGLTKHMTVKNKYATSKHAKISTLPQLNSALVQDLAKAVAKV

SMILES | IC50 [1] [nM] | IC50 [2] [nM] | IC50 [3] [nM] | IC50 [4] [nM]
CN(C)CCOc1ccc(Nc2nc(N)c(C(=O)c3ccc4c(c3)OCCO4)s2)cc1 [Example 58, [4-Amino-2-[4-(2-dimethylamino-ethoxy)-phenylamino]-thiazol-5-yl]-(2,3-dihydro-benzo[1,4]dioxin-6-yl)-methanone] | 884 | 43 | 3700 | –
CCc1cccc(C(=O)c2sc(Nc3ccc(OC4CCN(CC)C4)cc3)nc2N)c1 (stereo not drawn) [Example 84, [4-Amino-2-[4-(1-ethyl-pyrrolidin-3-yloxy)-phenylamino]-thiazol-5-yl]-(3-ethyl-phenyl)-methanone] | 655 | 46 | 1510 | 278
Cc1ccc(C(=O)c2sc(Nc3ccc(OC[C@@H]4CCCN4C)cc3)nc2N)cc1F [Example 114, (S)-[4-Amino-2-[4-(1-methyl-pyrrolidin-2-ylmethoxy)-phenylamino]-thiazol-5-yl]-(3-fluoro-4-methyl-phenyl)-methanone] | 850 | 63 | 2070 | 5030
CCNCCOc1ccc(Nc2nc(N)c(C(=O)c3cccc(C)c3)s2)cc1 [Example 100, [4-Amino-2-(4-(2-ethylamino-ethoxy)-phenylamino]-thiazol-5-yl]-m-tolyl-methanone; Compound With Acetic Acid] | 731 | 43 | 880 | 1230
Nc1nc(Nc2ccc(OCCN3CCCC3)cc2)sc1C(=O)c1cccc(C2CC2)c1 [Example 72, [4-Amino-2-[4-(2-pyrrolidin-1-yl-ethoxy)-phenylamino]-thiazol-5-yl]-(3-cyclopropyl-phenyl)-methanone] | 1980 | 37 | 1380 | 1180
CCc1cc(C(=O)c2sc(Nc3ccc(OCCN4CCCC4)cc3)nc2N)ccc1F [Example 76, [4-Amino-2-[4-(2-pyrrolidin-1-yl-ethoxy)-phenylamino]-thiazol-5-yl]-(3-ethyl-4-fluoro-phenyl)-methanone] | 3890 | 63 | 3690 | –
CCc1cc(C(=O)c2sc(Nc3ccc(OC[C@@H](C)N(C)C)cc3)nc2N)ccc1F [Example 77, (R)-[4-Amino-2-[4-(2-dimethylamino-propoxy)-phenylamino]-thiazol-5-yl]-(3-ethyl-4-fluoro-phenyl)-methanone] | 7800 | 80 | 4400 | –
CCNCCOc1ccc(Nc2nc(N)c(C(=O)c3ccc4c(c3)OCCO4)s2)cc1 [Example 134, [4-Amino-2-[4-(2-ethylamino-ethoxy)-phenylamino]-thiazol-5-yl]-(2,3-dihydro-benzo[1,4]dioxin-6-yl)-methanone] | 1930 | 44 | 7290 | –
CCc1cc(C(=O)c2sc(Nc3ccc(OC4CCCN(CC)C4)cc3)nc2N)ccc1F (stereo not drawn) [Example 81, [4-Amino-2-[4-(1-ethyl-piperidin-3-yloxy)-phenylamino]-thiazol-5-yl]-(3-ethyl-4-fluoro-phenyl)-methanone] | – | 55 | 4240 | 6400
CC1COc2ccc(C(=O)c3sc(Nc4ccc(OCCN5CCCC5)cc4)nc3N)cc21 (stereo not drawn) [Example 140, [4-Amino-2-[4-(2-pyrrolidin-1-yl-ethoxy)-phenylamino]-thiazol-5-yl]-(3-methyl-2,3-dihydro-benzofuran-5-yl)-methanone] | – | 63 | 4630 | –
CCNCCOc1ccc(Nc2nc(N)c(C(=O)c3ccc4c(c3)CCO4)s2)cc1 [Example 143, [4-Amino-2-[4-(2-ethylamino-ethoxy)-phenylamino]-thiazol-5-yl]-(2,3-dihydro-benzofuran-5-yl)-methanone] | 2360 | 91 | – | 3020
CCN1CCCC(Oc2ccc(Nc3nc(N)c(C(=O)c4ccc(O)c(F)c4)s3)cc2)C1 (stereo not drawn) [Example 82, [4-Amino-2-[4-(1-ethyl-piperidin-3-yloxy)-phenylamino]-thiazol-5-yl]-(3-fluoro-4-hydroxy-phenyl)-methanone] | 1020 | 71 | – | 1500
CC(C)NCCOc1ccc(Nc2nc(N)c(C(=O)c3ccc4c(c3)OCCO4)s2)cc1 [Example 136, [4-Amino-2-[4-(2-isopropylamino-ethoxy)-phenylamino]thiazol-5-yl]-(2,3-dihydro-benzo[1,4]dioxin-6-yl)-methanone] | 1760 | 45 | 5090 | –
CN(C)CCOc1ccc(Nc2nc(N)c(C(=O)c3cccc(C#N)c3)s2)cc1 [Example 60, 3-[4-Amino-2-[4-(2-dimethylamino-ethoxy)-phenylamino]-thiazole-5-carbonyl]-benzonitrile] | 847 | 79 | – | 1700
CN(C)CCOc1ccc(Nc2nc(N)c(C(=O)c3ccc4c(c3)OCO4)s2)cc1 [Example 59, [4-Amino-2-[4-(2-dimethylamino-ethoxy)-phenylamino]-thiazol-5-yl]-benzo[1,3]dioxol-5-yl-methanone] | 434 | 63 | – | 5600
Cc1cccc(C(=O)c2sc(Nc3ccc(OC[C@@H]4CCCN4C)cc3)nc2N)c1 [Example 111, (S)-[4-Amino-2-[4-(1-methyl-pyrrolidin-2-ylmethoxy)-phenylamino]-thiazol-5-yl]-m-tolyl-methanone] | 1560 | 86 | – | 2990
Cc1ccc(C(=O)c2sc(Nc3ccc(OC[C@@H](C)N(C)C)cc3)nc2N)cc1F [Example 74, (R)-[4-Amino-2-[4-(2-dimethylamino-propoxy)-phenylamino]-thiazol-5-yl]-(3-fluoro-4-methyl-phenyl)-methanone] | 869 | 92 | – | 5130
